In a melting point compilation (Tetko et al.; mined from patent text by program, amines drawn as free bases though some values may be those of a salt):

| SMILES | melting point [°C] |
| --- | --- |
| ClC(=NN=Cc1cccnc1)c1cccnc1 | 103 to 105 |
| CCOC(=O)c1cn(-c2ccc(F)cc2)c2cc(-c3cc(C)no3)ccc2c1=O | 214 to 216 |
| CCc1nc2c(N)nc3cc(-c4ccncc4)ccc3c2n1CC(C)(C)O | > 250 |
| Nc1c([N+](=O)[O-])sc2ccc(C(F)(F)F)cc12 | 198 to 201 |
| CCCCN(CCCC)CCCCCCOc1ccc([C@H]2c3ccc(OCc4ccccc4)cc3OC[C@H]2c2ccccc2)cc1 (racemic) | 72 to 73.5 |
| CC1CCCC(=Cc2ccc(Cl)cc2)C1=O (stereo not drawn) | 59 |
| CC(C)Cn1cnc2c(Cl)nc3ccccc3c21 | 134 to 136 |
| CCCc1cc(C#N)sc1-c1ccc2c(c1)C(C)(C)OC(=O)N2 | 160 to 162 |
| O=C(O)Cc1cc2c(s1)-c1ccccc1CC2 | 103 to 105 |
| CCNC(=O)Nc1nc2cc(-c3cccnc3)cc(-c3cccc(OC)n3)c2s1 | 300 |
| CC(=O)OCc1cc(=O)c(Oc2ccc(F)cc2)c(-c2ccc(S(C)(=O)=O)cc2)o1 | 180 |
| O=S(Cc1ccccc1)C1CCN(Cc2ccccc2)CC1 (racemic) | 123 |
| CN(Cc1ccc2c(Br)c(OCc3nnn[nH]3)ccc2c1)C(=O)c1cn(C)c2ccccc12 | 227 to 228 |
| CC(C)c1c(CO)c(-c2ccc(F)cc2)c2ccccn12 | 90 to 92 |
| Nc1ccc(OC(F)(F)C(F)F)cc1[N+](=O)[O-] | 83.9 to 84.4 |
| Cc1cccc2c1NS(=O)(=O)N(C(C)C)C2=O | 124 |
| Cc1ccc(N2CCN(Cc3cnc(N)nc3N)CC2)cc1 | 248 to 250 |
| O=C(O)c1cc([N+](=O)[O-])c(F)c(F)c1F | 128 to 129 |
| COc1ccccc1CCNC(=S)Nc1nc2ccccc2[nH]1 | 176 to 184 |

| SMILES | melting point [°C] |
| --- | --- |
| O=C(O)c1cc2cccc(OCc3ccccc3)c2[nH]1 | 166 to 168 |
| Cn1ccc2cc(N3Cc4ccc(N5CCCC5)cc4C3=O)ccc21 | 252 to 253 |
| CC(=O)OC1CC2C3CCC(C(C)CCCC(C)C)C3(C)CCC2C2(C)CC(F)C(=O)CC12 (stereo not drawn) | 153 to 156 |
| COc1cc(Nc2c(-c3ccc(S(C)(=O)=O)cc3)cnn(CC(F)(F)F)c2=O)cc(C(F)(F)F)c1 | 206 to 208 |
| Cc1noc(C(=O)NC(C)(C)C)c1C(N)=O | 155 to 158 |
| CCCCCCCCCCCCCCCCCCN(C)CC(O)COC(c1ccccc1)(c1ccccc1)c1ccccc1 (stereo not drawn) | 45 |
| O=C(CCCCCOc1ccccc1)c1ccccc1 | 53.5 to 54.5 |
| Brc1ccc(Oc2ccc(-n3ccnc3)nn2)cc1 | 168 |
| CCOC(=O)c1ncn2c1[C@@H]1CCN1C(=O)c1c-2cccc1C(F)(F)F | 183 to 184 |
| Cc1cc(N)c(C(=O)Cc2nnnn2C)cc1C | 162 to 165 |
| O=C(O)C1=Cc2cc(Cl)cc(-c3ccc(Cl)cc3)c2OC1C(F)(F)F (stereo not drawn) | 206 to 207 |
| CCCCCCC(=O)N[C@H](CO)C(=O)OCc1ccccc1 | 62 to 66 |
| O=C(O)c1c[nH]c(=S)n1C1CCc2c(F)cc(F)cc2C1 (stereo not drawn) | 250 to 252 |
| COc1ccc(C2CNCc3c2ccc(OC)c3C)cc1OC (stereo not drawn) | 128 to 129 |
| CCCc1nn(C)c2c(=O)n(CCCNc3ccc(OC(C)(C)C(=O)O)cc3)c(C)nc12 | 104 to 106 |
| CC(=O)c1coc(S(N)(=O)=O)c1 | 135 to 136 |
| OCCC1=Cc2ccccc2C1 | 47 to 49 |
| CC(=O)Cc1ccc2c(c1)C1(C)CCN(C)C1N2C (stereo not drawn) | 115 to 125 |
| O=C(O)c1cnc2ncnn2c1S | 247 to 249 |

| SMILES | melting point [°C] |
| --- | --- |
| O=CNCC1Cc2ccccc2Cc2ccccc21 (stereo not drawn) | 109 to 111 |
| COc1ccc(Cc2cc(C(C)(C)C)c(O)c(C(C)(C)C)c2)cc1 | 139 |
| CC(=O)Nc1cc(F)c([N+](=O)[O-])cc1F | 188 to 189 |
| ClC(Cl)=CCOc1cc(Cl)c(OCCC2COC(c3ccc(Cl)cc3)O2)c(Cl)c1 (stereo not drawn) | 84.1 |
| CCCCCCCCCCCCCCCCC(OC)C(=O)OC (stereo not drawn) | 33 to 36 |
| CC(=O)SCCS(C)(=O)=O | 57 to 59 |
| CC(C)(C)c1cc(C=C2Sc3ccccc3N(CP(=O)(O)O)C2=O)cc(C(C)(C)C)c1O | 232 to 233 |
| CCOC(=O)C(CCC(=O)O)(CCC(=O)O)C(=O)OCC | 120 |
| CC(C)c1cc(C(C)C)c(NC(=O)CN2CCN(CCSc3nc4ccccc4[nH]3)CC2)c(C(C)C)c1 | 217 to 218 |
| COc1cc(F)ccc1C(=O)NCCN1CCC(n2c(=O)[nH]c3cc(Cl)ccc32)CC1 | 227 |
| Cc1ccccc1SCc1c(C(C)C)nc(C(C)C)c(CO)c1-c1ccc(F)cc1 | 140 to 141 |
| CCNC(=O)Nc1nc2cc(-c3cccnc3)cc(OCCN(C)C)n2n1 | 200 to 202 |
| CCOC(=O)C1=C(N)NC(C)=CC1c1ccc(OC)cc1 (stereo not drawn) | 160 to 161 |
| O=C(NCCc1ccccc1)c1ccc(Cl)nc1 | 95 to 96 |
| CS(=O)(=O)c1cc(C(=O)O)ccc1Oc1ccc(C(O)CSc2ccccn2)cc1 (stereo not drawn) | 169 to 174 |
| Cc1cccc2c1-n1cnnc1SC2 | 234 |
| Nc1cc(C[C@H](Nc2nc3ccc(Cl)cc3cc2C(=O)O)C(=O)O)ccc1Oc1nc2ccc(Cl)cc2cc1C(=O)O | > 250 |
| Cc1cn(C)c2cc(C(F)(F)F)c(O)cc12 | 256 |
| COc1cc2c(c(Cl)c1Cl)SC(C1CCCC1)C2O (stereo not drawn) | 129 to 132 |

Results, then the molecule that gave them:

| melting point [°C] | SMILES |
| --- | --- |
| 138 | Oc1ccc(C=C2c3ccccc3CCc3ccccc32)cc1O |
| 156 to 157 | CC(=O)c1cc(S(=O)(=O)c2ccccc2)ccc1O |
| 177 to 178 | COc1cc2ncnc(N3CCN(C(=S)NCc4ccc(N(C)C)cc4)CC3)c2cc1OC |
| 162 | COc1cc(C2=C(c3c[nH]c4ncccc34)C(=O)NC2=O)cc(OC)c1OC |
| 169 to 172 | O=c1c2c(Br)cc(Br)cc2n(Cc2ccccc2)c(=O)n1Cc1ccccc1 |
| 172 | CCc1c(Cl)ccc2c1C=C(C(=O)O)C(C(F)(F)F)O2 (stereo not drawn) |
| 124 to 126 | COc1ccc(CC(CSC(C)=O)C(=O)Nc2cccc(C(=O)O)c2)cc1 (stereo not drawn) |
| 57 | CC1=CC(=O)C=CC1(C)C(Cl)(Cl)Cl (stereo not drawn) |
| 114 to 116 | Cc1c(O)ccc2c(C(F)(F)F)cc(=O)oc12 |
| 106 to 108 | CC(=O)N(O)C(C)c1cn(C)c2ccccc12 (stereo not drawn) |
| 139 | CCN(CC)C(=O)N1CCc2cc(S(=O)(=O)N3C(=O)C(NCCC4CCN(C(=O)OC(C)(C)C)CC4)(c4ccccc4Cl)c4cc(Cl)ccc43)ccc21 (stereo not drawn) |
| 206 to 207 | CCn1c2ccccc2c2cc(NC(=O)c3ccccc3C(F)(F)F)ccc21 |
| 109 to 111 | C#CCn1c(=O)n(C(C)C)c2ccc(-c3ncc(C(F)(F)F)cc3Cl)cc21 |
| 142 to 148 | Cc1cc(F)ccc1-c1nc(NCCNC(=O)Nc2ccccc2)nc2c1ccc(=O)n2-c1c(F)cccc1F |
| 173 to 174 | O=C(O)C1=CC(CF)(CF)Oc2ccc(C(F)(F)C(F)(F)F)cc21 |
| 275 | NS(=O)(=O)c1cccc(NC(=O)c2cnn3c(C(F)(F)F)cc(-c4ccc(F)c(F)c4)nc23)c1 |
| 198 to 200 | CC1(C)CCC(C)(C)c2cc(S(=O)Cc3ccc(C(=O)O)cc3)ccc21 (stereo not drawn) |
| 203 to 204 | NS(=O)(=O)c1ccc(CCN2CCN(c3ccncc3)CC2)cc1 |
| > 280 | Cc1nn(-c2ccccc2)c(O)c1-c1c(C)nn(-c2ccccc2)c1O |
| 198 to 200 | COc1nc2ccccc2nc1NC(=O)N1CCN(c2ccc(C(C)=O)cc2)CC1 |
| 151 to 152 | COc1ccc(Cn2ccnc2C=Cc2ccc([N+](=O)[O-])o2)cc1 |
| 217 | CCOC(=O)c1cnn(C)c1C(=O)Nc1ccc2nc(-c3cccnc3)nn2c1 |
| 98 to 99 | CCCc1c(OCc2ccc(CBr)cc2)ccc(C(C)=O)c1O |

| melting point [°C] | SMILES |
| --- | --- |
| 168 to 169 | COC(=O)c1ccc(C=Cc2nc3ccccc3s2)cc1 |
| 175 to 177 | CCOC(=O)c1cc(=O)c2cccc(NC(=O)c3ccc4c(c3)CC(CSCc3ccccc3)O4)c2o1 (stereo not drawn) |
| 164 to 165 | CCc1onc(-c2ccc(Cl)cc2)c1CCC(=O)O |
| 174 | COC(=O)c1cc(F)ccc1Nc1ccnc2cc(C(F)(F)F)ccc12 |
| 125 to 127 | O=C(O)c1cc(N=C=S)cc(N=C=S)c1 |
| 144 to 146 | FC(F)(F)CSc1nc2cc(Cl)c(Cl)cc2[nH]1 |
| 147 to 148 | CC(C)(C)c1ccc(NC(=O)Nc2cccc(C(=O)O)c2)cc1 |
| 265 to 268 | Nc1ncnc2c1ncn2OCCCCP(=O)(O)O |
| 184 to 185 | COc1ccc(-c2coc3ccc(C(=O)NN)cc23)cc1 |
| 244 to 247 | CNS(=O)(=O)c1ccc2c(c1)S(=O)(=O)N=C1CCCN12 |
| 61 to 62 | Cc1cc(CCCCCOc2ccc(C#N)cc2)no1 |
| 100 to 102 | CCOC(=O)c1ccc(-c2ccsc2)nc1C(=O)OCC |
| 79 to 81 | CC(C)OC1C=CC(=O)N1 (stereo not drawn) |
| 162 | Cc1nc2sccn2c(=O)c1CCN1CCC(=C2c3ccc(F)cc3CCn3ncnc32)CC1 |
| 131 to 132 | C[C@H](C#Cc1sc(Cc2ccc(F)cc2)cc1Cl)N(O)C(N)=O |
| 209 to 211 | COc1ccccc1-c1cncc(OC2SCC(O)C(O)C2O)c1 (stereo not drawn) |
| 98 to 99 | CC(C)C(=O)c1cc(O)c(O)c([N+](=O)[O-])c1 |
| 112 to 116 | CC(=O)c1cc(Cl)sc1S(=O)(=O)Nc1ccc(CCO)cc1 |
| 61 to 63 | CCC(C1=C(C)C(=O)C(C)=C(C)C1=O)c1ccc(C(C)C)cc1 (stereo not drawn) |
| 210 to 211 | C=CCOC(=O)c1ccc(NC(=O)C(C(N)=O)c2ccc3c(c2)C(C)(C)CCC3(C)C)cc1 (stereo not drawn) |
| 101 to 104 | O[C@@H]1CN(Cc2ccccc2)C[C@H]1Oc1ccc(Cl)cc1 (relative stereo) |
| 108 to 109 | Cc1ccccc1OCCCN1CCC(C(O)(c2ccc(F)cc2)c2ccc(F)cc2)CC1 |
| 87 to 88 | c1ccc2cc(Cn3ccnc3)ccc2c1 |
